In the assay the test system is test plant species. Put plainly: Post-emergent herbicidal activity test (greenhouse, foliar spray, visual growth reduction). The assay is classed as in vivo. Particulars: 140 g ai/ha, 14 days after application; for pest or weed control at 140 g/ha: post-emergence, 336 h. The procedure, abridged: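 Greenhouse plants at first–second true leaf stage sprayed overhead at 187 L/ha with compound in acetone/water/isopropanol/DMSO/crop oil/X-77 carrier; controls received solvent blank. Injury rated visually after 14 d on a 0–100% scale versus untreated and control plants, converted to growth reduction.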

Setting [1] is: ALOMY: blackgrass (Alopecurus myosuroides), read-out: Visual Growth Reduction (%) 14 Days After Application, ALOMY.
Setting [2] is: AMARE: redroot pigweed (Amaranthus retroflexus), read-out: Visual Growth Reduction (%) 14 Days After Application, AMARE.
The mark [3] stands for this setting: AVEFA: wild oat (Avena fatua), read-out: Visual Growth Reduction (%) 14 Days After Application, AVEFA.
Setting [4] is: CHEAL: lambsquarters (Chenopodium album), read-out: Visual Growth Reduction (%) 14 Days After Application, CHEAL.
Setting [5] is: CIRAR: canada thistle (Cirsium arvense), read-out: Visual Growth Reduction (%) 14 Days After Application, CIRAR.
[6] abbreviates: CYPES: yellow nutsedge (Cyperus esculentus), read-out: Visual Growth Reduction (%) 14 Days After Application, CYPES.
The mark [7] stands for this setting: DIGSA: crabgrass (Digitaria sanguinalis), read-out: Visual Growth Reduction (%) 14 Days After Application, DIGSA.
Setting [8] is: ECHCG: barnyardgrass (Echinochloa crus-galli), read-out: Visual Growth Reduction (%) 14 Days After Application, ECHCG.
[9] abbreviates: IPOHE: ivy-leaf morning glory (Ipomoea hederacea), read-out: Visual Growth Reduction (%) 14 Days After Application, IPOHE.
The mark [10] stands for this setting: KCHSC: kochia (Bassia scoparia), read-out: Visual Growth Reduction (%) 14 Days After Application, KCHSC.
The mark [11] stands for this setting: ORYSA: rice (Oryza sativa), read-out: Visual Growth Reduction (%) 14 Days After Application, ORYSA.
Setting [12] is: SETFA: giant foxtail (Setaria faberi), read-out: Visual Growth Reduction (%) 14 Days After Application, SETFA.
The mark [13] stands for this setting: SORVU: grain sorghum (Sorghum vulgare), read-out: Visual Growth Reduction (%) 14 Days After Application, SORVU.
Where [14] appears, read: STEME: common chickweed (Stellaria media), read-out: Visual Growth Reduction (%) 14 Days After Application, STEME.
Setting [15] is: TRZAS: wheat, spring (Triticum aestivum), read-out: Visual Growth Reduction (%) 14 Days After Application, TRZAS.

Structures are written as SMILES. Read-outs that look alike come from different tables or passages of the source.

Consider `O=C(O)c1nc(-c2ncc(Cl)c(C(F)F)c2Cl)ccc1Cl` [F193, 3′,5,5′-Trichloro-4′-(difluoromethyl)-[2,2′-bipyridine]-6-carboxylic acid], for which the pest or weed control at 140 g/ha under setting [1] fell in the range of 0 to 29%; the pest or weed control at 140 g/ha under setting [2] is 95 to 100%; the pest or weed control at 140 g/ha under setting [3] is 30 to 44%; the pest or weed control at 140 g/ha under setting [4] lay in the range of 85 to 94%; the pest or weed control at 140 g/ha under setting [5] lay in the range of 0 to 29%; the pest or weed control at 140 g/ha under setting [6] lay in the range of 0 to 29%. For the same compound, the pest or weed control at 140 g/ha lay within 85 to 94% under setting [7]; 85 to 94% under setting [8]; 95 to 100% under setting [9]; 0 to 29% under setting [10]; 0 to 29% under setting [11]; 75 to 84% under setting [12]. Besides, the pest or weed control at 140 g/ha was in the range of 95 to 100% under setting [13], 0 to 29% under setting [14] and 0 to 29% under setting [15].
As to `COC(=O)c1nc(-c2cnc(C(F)(F)F)cc2Cl)ccc1Cl` [F194, Methyl 4′,5-dichloro-6′-(trifluoromethyl)-[2,3′-bipyridine]-6-carboxylate], the pest or weed control at 140 g/ha lay within 0 to 29% under setting [1]; 0 to 29% under setting [2]; 0 to 29% under setting [3]; 30 to 44% under setting [4]; 75 to 84% under setting [5]; 0 to 29% under setting [6]. In addition, the pest or weed control at 140 g/ha is 0 to 29% under setting [7]; 45 to 59% under setting [8]; 95 to 100% under setting [9]; 0 to 29% under setting [10]; 0 to 29% under setting [11]; 0 to 29% under setting [12]. In addition, the pest or weed control at 140 g/ha is 45 to 59% under setting [13], 0 to 29% under setting [14] and 0 to 29% under setting [15].
Turning to `O=C(O)c1nc(-c2ncc(Cl)cc2Cl)ccc1Cl` [F195, 3′,5,5′-Trichloro-[2,2′-bipyridine]-6-carboxylic acid], the pest or weed control at 140 g/ha reads like this: under setting [1], 0 to 29%; under setting [2], 95 to 100%; under setting [3], 30 to 44%; under setting [4], 95 to 100%; under setting [5], 0 to 29%; under setting [6], 0 to 29%. Further, the pest or weed control at 140 g/ha reads like this: under setting [7], 60 to 74%; under setting [8], 75 to 84%; under setting [9], 95 to 100%; under setting [10], 60 to 74%; under setting [11], 30 to 44%; under setting [12], 60 to 74%. Moreover, the pest or weed control at 140 g/ha was in the range of 85 to 94% under setting [13], 0 to 29% under setting [14] and 45 to 59% under setting [15].
Turning to `O=C(O)c1nc(-c2cc3c(cc2Cl)OCO3)c(F)cc1Cl` [F196, 3-Chloro-6-(6-chlorobenzo[d][1,3]dioxol-5-yl)-5-fluoropicolinic acid], the pest or weed control at 140 g/ha reads like this: under setting [1], 0 to 29%; under setting [2], 75 to 84%; under setting [3], 0 to 29%; under setting [4], 85 to 94%; under setting [5], 0 to 29%; under setting [6], 0 to 29%. Besides, the pest or weed control at 140 g/ha was 0 to 29% under setting [7]; 0 to 29% under setting [8]; 95 to 100% under setting [9]; 60 to 74% under setting [10]; 0 to 29% under setting [11]; 0 to 29% under setting [12]. Further, the pest or weed control at 140 g/ha was in the range of 45 to 59% under setting [13], 0 to 29% under setting [14] and 0 to 29% under setting [15].
As to `COC(=O)c1nc(-c2ccc([N+](=O)[O-])cc2)c(F)cc1Cl` [F197, Methyl 3-chloro-5-fluoro-6-(4-nitrophenyl) picolinate], the “Visual Growth Reduction (%) 14 Days After Application, ALOMY” value (ALOMY: blackgrass (Alopecurus myosuroides)) is reported as “G (0-29)”. The “Visual Growth Reduction (%) 14 Days After Application, AMARE” value (AMARE: redroot pigweed (Amaranthus retroflexus)) is recorded as “G (0-29)”. For the same compound, the “Visual Growth Reduction (%) 14 Days After Application, AVEFA” value (AVEFA: wild oat (Avena fatua)) is listed as “G (0-29)”. Moreover, under “CHEAL: lambsquarters (Chenopodium album)”, the “Visual Growth Reduction (%) 14 Days After Application, CHEAL” value was “E (45-59)”. In addition, where the note is “CIRAR: canada thistle (Cirsium arvense)”, the “Visual Growth Reduction (%) 14 Days After Application, CIRAR” value is “G (0-29)”. Under “CYPES: yellow nutsedge (Cyperus esculentus)”, the “Visual Growth Reduction (%) 14 Days After Application, CYPES” value is listed as “G (0-29)”. Where the note is “DIGSA: crabgrass (Digitaria sanguinalis)”, the “Visual Growth Reduction (%) 14 Days After Application, DIGSA” value was “F (30-44)”. For the setting “ECHCG: barnyardgrass (Echinochloa crus-galli)”, the “Visual Growth Reduction (%) 14 Days After Application, ECHCG” value is listed as “G (0-29)”. Also, the “Visual Growth Reduction (%) 14 Days After Application, IPOHE” value (IPOHE: ivy-leaf morning glory (Ipomoea hederacea)) is reported as “D (60-74)”. Besides, the “Visual Growth Reduction (%) 14 Days After Application, KCHSC” value (KCHSC: kochia (Bassia scoparia)) is listed as “G (0-29)”. Besides, the “Visual Growth Reduction (%) 14 Days After Application, ORYSA” value (ORYSA: rice (Oryza sativa)) is reported as “G (0-29)”. In addition, for the setting “SETFA: giant foxtail (Setaria faberi)”, the “Visual Growth Reduction (%) 14 Days After Application, SETFA” value is on record as “G (0-29)”. For the same compound, the “Visual Growth Reduction (%) 14 Days After Application, SORVU” value (SORVU: johnsongrass (Sorghum vulgare)) is “F (30-44)”. Moreover, where the note is “STEME: common chickweed (Stellaria media)”, the “Visual Growth Reduction (%) 14 Days After Application, STEME” value was “G (0-29)”. Moreover, the “Visual Growth Reduction (%) 14 Days After Application, TRZAS” value (TRZAS: wheat, spring (Triticum aestivum)) is “G (0-29)”.
Take `O=C(O)c1nc(-c2ccc3occc3c2)c(F)cc1Cl` [F198, 6-(Benzofuran-5-yl)-3-chloro-5-fluoropicolinic acid]: the pest or weed control at 140 g/ha reads like this: under setting [1], 0 to 29%; under setting [2], 0 to 29%; under setting [3], 0 to 29%; under setting [4], 0 to 29%; under setting [5], 0 to 29%; under setting [6], 0 to 29%. For the same compound, the pest or weed control at 140 g/ha by setting is: under setting [7], 0 to 29%; under setting [8], 0 to 29%; under setting [9], 60 to 74%; under setting [10], 0 to 29%; under setting [11], 0 to 29%; under setting [12], 0 to 29%. The pest or weed control at 140 g/ha by setting is: under setting [13], 0 to 29%; under setting [14], 0 to 29%; under setting [15], 0 to 29%.
As for `O=C(O)c1nc(-c2ccc3[nH]ccc3c2)c(F)cc1Cl` [F199, 3-Chloro-5-fluoro-6-(1H-indol-5-yl)picolinic acid], the pest or weed control at 140 g/ha lay in the range of 0 to 29% under setting [1]; 0 to 29% under setting [2]; 0 to 29% under setting [3]; 30 to 44% under setting [4]; 0 to 29% under setting [5]; 0 to 29% under setting [6]. In addition, the pest or weed control at 140 g/ha runs as follows: under setting [7], 0 to 29%; under setting [8], 0 to 29%; under setting [9], 0 to 29%; under setting [10], 0 to 29%; under setting [11], 0 to 29%; under setting [12], 0 to 29%. Further, the pest or weed control at 140 g/ha fell in the range of 0 to 29% under setting [13], 0 to 29% under setting [14] and 0 to 29% under setting [15].

The record behind these values is patent US20230017045A1, “PYRIDINE AND PYRIMIDINE CARBOXYLATE HERBICIDES AND METHODS OF USE THEREOF” (Dow AgroSciences LLC, priority 2017, published 2023).
